Values of other authors as cited in patent US20120270783A1, “Rapid opioid detoxification” (priority 2011, published 2012).
Where two headings read alike, the source gives them in different places.

Tests used:
[1] = tested on: receptor sites; settings: relative to naloxone
[2] = in vivo

| Structure (SMILES) | time to rapid awakening after discontinuation (after maintenance of anesthesia for approximately 1-10 hours at recommended doses) | time to rapid awakening after discontinuation, usual (usually, after maintenance of anesthesia for approximately 1-10 hours) [min] | receptor sites occupied, more than naloxone [1] | half-life [2] [h] | half-life ([2]; listed as Nalmefene) |
| --- | --- | --- | --- | --- | --- |
| CC(C)c1cccc(C(C)C)c1O [propofol, 2,6-diisopropyl phenol] | less than 20 minutes | 10 to 15 | – | – | – |
| C=C1CC[C@@]2(O)[C@H]3Cc4ccc(O)c5c4[C@@]2(CCN3CC2CC2)[C@H]1O5 [nalmefene] | – | – | approximately 50% | 10.8 | about 10.8 hours |
